# Data reported in patent US20200339625A1, “NOVEL RADIOMETAL-BINDING COMPOUNDS FOR DIAGNOSIS OR TREATMENT OF PROSTATE SPECIFIC MEMBRANE ANTIGEN-EXPRESSING CANCER” (PROVINCIAL HEALTH SERVICES AUTHORITY, priority 2017, published 2020).
# Columns and labels:
# [1] = system: mice bearing LNCaP tumor xenografts; assay: PET/CT imaging of 68Ga-labeled compounds; format: in vivo
# Summary of the method: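 Male NOD SCID IL2Rγ KO mice bore subcutaneous LNCaP xenografts (1×10^7 cells, tumours 5-8 mm) and received 6-8 MBq tracer via tail vein under 2% isoflurane. At 50 min p.i., a 10-min CT and a 10-min static PET were acquired. For the 3 h time point, scanning began at 170 min p.i. with a 15-min static PET.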
# [2] = system: mice bearing PSMA-expressing LNCAP cancer xenografts; assay: Biodistribution of 68Ga-labeled compounds; format: in vivo
# Summary of the method: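 NOD-SCID IL2RγKO male mice carried subcutaneous LNCaP xenografts grown to 5-8 mm over 5-6 weeks. Organs and blood were collected at 1 or 3 h after injection of the radiotracer and gamma-counted. Uptake was normalized to injected dose via a standard curve and expressed as %ID/g.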
smiles,measurement,setting,value
O=C([O-])CN1CCN(CC(=O)[O-])CCN(CC(=O)NCCCC[C@H](NC(=O)CNC(=O)CCc2ccccc2)C(=O)NC[C@H]2CC[C@H](C(=O)N[C@@H](Cc3ccc4ccccc4c3)C(=O)NCCCC[C@H](NC(=O)N[C@@H](CCC(=O)O)C(=O)O)C(=O)O)CC2)CCN(CC(=O)[O-])CC1.[68Ga+3] [^68Ga-HTK03082],excretion pathway,[1]; PET/CT images,excreted mainly by the renal pathway
same,Adrenal glands uptake,[2]; 1 h post-injection,2.19 ± 0.76 % ID/g
same,Blood uptake,[2]; 1 h post-injection,1.37 ± 0.23 % ID/g
same,Bone uptake,[2]; 1 h post-injection,0.15 ± 0.06 % ID/g
same,Brain uptake,[2]; 1 h post-injection,0.03 ± 0.01 % ID/g
same,Fat uptake,[2]; 1 h post-injection,0.61 ± 0.09 % ID/g
same,Heart uptake,[2]; 1 h post-injection,0.40 ± 0.07 % ID/g
same,Intestine uptake,[2]; 1 h post-injection,0.33 ± 0.07 % ID/g
same,Kidneys uptake,[2]; 1 h post-injection,81.6 ± 12.6 % ID/g
same,Lacrimal uptake,[2]; 1 h post-injection,0.08 ± 0.03 % ID/g
same,Liver uptake,[2]; 1 h post-injection,0.39 ± 0.09 % ID/g
same,Lungs uptake,[2]; 1 h post-injection,1.39 ± 0.27 % ID/g
same,Muscle uptake,[2]; 1 h post-injection,0.33 ± 0.15 % ID/g
same,Pancreas uptake,[2]; 1 h post-injection,0.47 ± 0.26 % ID/g
same,Salivary uptake,[2]; 1 h post-injection,1.17 ± 0.27 % ID/g
same,Seminal uptake,[2]; 1 h post-injection,0.81 ± 0.94 % ID/g
same,Spleen uptake,[2]; 1 h post-injection,1.12 ± 0.19 % ID/g
same,Stomach uptake,[2]; 1 h post-injection,0.10 ± 0.03 % ID/g
same,Tail uptake,[2]; 1 h post-injection,0.84 ± 0.14 % ID/g
same,Testes uptake,[2]; 1 h post-injection,0.42 ± 0.05 % ID/g
same,Thyroid uptake,[2]; 1 h post-injection,0.58 ± 0.11 % ID/g
same,Tumor uptake,[2]; 1 h post-injection,13.6 ± 2.16 % ID/g
same,Tumor:Blood ratio,[2]; 1 h post-injection,10.1 ± 1.91
same,Tumor:Muscle ratio,[2]; 1 h post-injection,49.2 ± 24.2
same,Tumor:kidney ratio,[2]; 1 h post-injection,0.17 ± 0.02
same,Urine uptake,[2]; 1 h post-injection,349 ± 209 % ID/g
same,Adrenal glands uptake,[2]; 3 h post-injection,0.38 ± 0.06 % ID/g
same,Blood uptake,[2]; 3 h post-injection,0.25 ± 0.04 % ID/g
same,Bone uptake,[2]; 3 h post-injection,0.01 ± 0.01 % ID/g
same,Brain uptake,[2]; 3 h post-injection,0.01 ± 0.00 % ID/g
same,Fat uptake,[2]; 3 h post-injection,0.21 ± 0.01 % ID/g
same,Heart uptake,[2]; 3 h post-injection,0.07 ± 0.02 % ID/g
same,Intestine uptake,[2]; 3 h post-injection,0.19 ± 0.02 % ID/g
same,Kidneys uptake,[2]; 3 h post-injection,22.3 ± 9.97 % ID/g
same,Lacrimal uptake,[2]; 3 h post-injection,0.01 ± 0.01 % ID/g
same,Liver uptake,[2]; 3 h post-injection,0.17 ± 0.02 % ID/g
same,Lungs uptake,[2]; 3 h post-injection,0.28 ± 0.07 % ID/g
same,Muscle uptake,[2]; 3 h post-injection,0.11 ± 0.11 % ID/g
same,Pancreas uptake,[2]; 3 h post-injection,0.09 ± 0.03 % ID/g
same,Salivary uptake,[2]; 3 h post-injection,0.20 ± 0.07 % ID/g
same,Seminal uptake,[2]; 3 h post-injection,0.12 ± 0.08 % ID/g
same,Spleen uptake,[2]; 3 h post-injection,0.24 ± 0.08 % ID/g
same,Stomach uptake,[2]; 3 h post-injection,0.05 ± 0.01 % ID/g
same,Tail uptake,[2]; 3 h post-injection,0.24 ± 0.14 % ID/g
same,Testes uptake,[2]; 3 h post-injection,0.13 ± 0.08 % ID/g
same,Thyroid uptake,[2]; 3 h post-injection,0.16 ± 0.09 % ID/g
same,Tumor uptake,[2]; 3 h post-injection,14.5 ± 2.12 % ID/g
same,Tumor:Blood ratio,[2]; 3 h post-injection,58.1 ± 12.6
same,Tumor:Muscle ratio,[2]; 3 h post-injection,223 ± 122
same,Tumor:kidney ratio,[2]; 3 h post-injection,1.12 ± 1.30
same,Urine uptake,[2]; 3 h post-injection,191 ± 83.1 % ID/g
O=C([O-])CN1CCN(CC(=O)[O-])CCN(CC(=O)NCCCC[C@H](NC(=O)CNC(=O)CCCc2ccc(Br)cc2)C(=O)NC[C@H]2CC[C@H](C(=O)N[C@@H](Cc3ccc4ccccc4c3)C(=O)NCCCC[C@H](NC(=O)N[C@@H](CCC(=O)O)C(=O)O)C(=O)O)CC2)CCN(CC(=O)[O-])CC1.[68Ga+3] [^68Ga-HTK03058],change of tumor uptake from 1 h to 3 h post-injection,[1]; PET/CT images,uptake in tumors increases over time
same,blood retention (qualitative),"[1]; PET/CT images at 1 h and 3 h post-injection, comparison within the figure",some extent of blood retention
same,Adrenal glands uptake,[2]; 1 h post-injection,4.20 ± 1.21 % ID/g
same,Blood uptake,[2]; 1 h post-injection,26.7 ± 3.02 % ID/g
same,Bone uptake,[2]; 1 h post-injection,1.04 ± 0.26 % ID/g
same,Brain uptake,[2]; 1 h post-injection,0.36 ± 0.06 % ID/g
same,Fat uptake,[2]; 1 h post-injection,2.13 ± 0.57 % ID/g
same,Heart uptake,[2]; 1 h post-injection,6.09 ± 0.97 % ID/g
same,Intestine uptake,[2]; 1 h post-injection,1.64 ± 0.27 % ID/g
same,Kidneys uptake,[2]; 1 h post-injection,14.7 ± 2.13 % ID/g
same,Lacrimal uptake,[2]; 1 h post-injection,0.69 ± 0.26 % ID/g
same,Liver uptake,[2]; 1 h post-injection,3.87 ± 1.00 % ID/g
same,Lungs uptake,[2]; 1 h post-injection,10.2 ± 2.20 % ID/g
same,Muscle uptake,[2]; 1 h post-injection,1.37 ± 0.17 % ID/g
same,Pancreas uptake,[2]; 1 h post-injection,2.00 ± 0.17 % ID/g
same,Salivary uptake,[2]; 1 h post-injection,3.90 ± 0.70 % ID/g
same,Seminal uptake,[2]; 1 h post-injection,1.31 ± 0.38 % ID/g
same,Spleen uptake,[2]; 1 h post-injection,3.13 ± 1.05 % ID/g
same,Stomach uptake,[2]; 1 h post-injection,0.58 ± 0.20 % ID/g
same,Tail uptake,[2]; 1 h post-injection,8.87 ± 4.26 % ID/g
same,Testes uptake,[2]; 1 h post-injection,2.74 ± 0.38 % ID/g
same,Thyroid uptake,[2]; 1 h post-injection,4.95 ± 0.79 % ID/g
same,Tumor uptake,[2]; 1 h post-injection,11.2 ± 3.33 % ID/g
same,Tumor:Blood ratio,[2]; 1 h post-injection,0.42 ± 0.11
same,Tumor:Muscle ratio,[2]; 1 h post-injection,8.04 ± 1.69
same,Tumor:kidney ratio,[2]; 1 h post-injection,0.75 ± 0.17
same,Urine uptake,[2]; 1 h post-injection,3.97 ± 2.56 % ID/g
same,Adrenal glands uptake,[2]; 3 h post-injection,4.46 ± 1.42 % ID/g
same,Blood uptake,[2]; 3 h post-injection,21.2 ± 2.21 % ID/g
same,Bone uptake,[2]; 3 h post-injection,1.54 ± 0.36 % ID/g
same,Brain uptake,[2]; 3 h post-injection,0.30 ± 0.06 % ID/g
same,Fat uptake,[2]; 3 h post-injection,2.47 ± 1.61 % ID/g
same,Heart uptake,[2]; 3 h post-injection,4.85 ± 0.67 % ID/g
same,Intestine uptake,[2]; 3 h post-injection,1.63 ± 0.18 % ID/g
same,Kidneys uptake,[2]; 3 h post-injection,17.5 ± 3.83 % ID/g
same,Lacrimal uptake,[2]; 3 h post-injection,1.44 ± 0.37 % ID/g
same,Liver uptake,[2]; 3 h post-injection,2.80 ± 0.46 % ID/g
same,Lungs uptake,[2]; 3 h post-injection,8.21 ± 1.21 % ID/g
same,Muscle uptake,[2]; 3 h post-injection,1.33 ± 0.24 % ID/g
same,Pancreas uptake,[2]; 3 h post-injection,1.96 ± 0.20 % ID/g
same,Salivary uptake,[2]; 3 h post-injection,3.45 ± 0.40 % ID/g
same,Seminal uptake,[2]; 3 h post-injection,1.15 ± 0.16 % ID/g
same,Spleen uptake,[2]; 3 h post-injection,2.11 ± 0.44 % ID/g
same,Stomach uptake,[2]; 3 h post-injection,0.79 ± 0.23 % ID/g
same,Tail uptake,[2]; 3 h post-injection,6.86 ± 2.42 % ID/g
same,Testes uptake,[2]; 3 h post-injection,3.02 ± 0.80 % ID/g
same,Thyroid uptake,[2]; 3 h post-injection,3.72 ± 0.33 % ID/g
same,Tumor uptake,[2]; 3 h post-injection,14.2 ± 1.99 % ID/g
same,Tumor:Blood ratio,[2]; 3 h post-injection,0.67 ± 0.07
same,Tumor:Muscle ratio,[2]; 3 h post-injection,10.8 ± 1.56
same,Tumor:kidney ratio,[2]; 3 h post-injection,0.83 ± 0.11
same,Urine uptake,[2]; 3 h post-injection,6.15 ± 3.78 % ID/g
